Test results: patent US20100196355A1, “Immunophilin Ligands and Methods for Modulating Immunophilin and Calcium Channel Activity” (Wyeth, priority 2007, published 2010)
“Also recorded” adds a separate entry of the source.

What was measured:
FKBP52 = target: T1, FKBP52 (Mus musculus, UniProt P30416); experiment: Affinity precipitation from F-11 cell lysate, FT-ICR-MS and Western analysis; type: binding, rat and mouse hybrid
T1 construct: endogenous in cells; host or cells: F-11 cells (rat DRG x mouse neuroblastoma hybrid), lysate
T1 sequence (P30416 whole entry): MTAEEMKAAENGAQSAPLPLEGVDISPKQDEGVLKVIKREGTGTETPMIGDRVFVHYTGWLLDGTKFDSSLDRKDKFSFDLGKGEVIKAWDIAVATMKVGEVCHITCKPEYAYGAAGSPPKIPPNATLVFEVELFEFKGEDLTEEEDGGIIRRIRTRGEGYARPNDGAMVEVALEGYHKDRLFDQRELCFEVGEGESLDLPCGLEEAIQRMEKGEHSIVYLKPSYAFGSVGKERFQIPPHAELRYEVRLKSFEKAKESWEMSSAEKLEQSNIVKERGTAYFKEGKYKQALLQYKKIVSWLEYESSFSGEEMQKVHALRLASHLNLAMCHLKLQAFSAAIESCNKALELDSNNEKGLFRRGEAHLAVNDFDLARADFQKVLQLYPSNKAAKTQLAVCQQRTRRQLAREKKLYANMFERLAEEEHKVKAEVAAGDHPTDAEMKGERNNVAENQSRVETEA
Method: (§1) Briefly, the amino group of amino-phenyl-butyric acid (1200 mg) was protected with an allyloxycarbonyl group by treating with diallyldicarbonate ([…]) in dioxane:water (3:1; 50 ml) for 3 h at room temperature.
(§2) The reaction was quenched with methanol and the ester product was purified by HPLC with a purity of 99% and characterized by MS and NMR. After removing the allyloxycarbonyl group of the ester product (40 mg) by treatment with Pd(PPh3)4 (2 mg) and dimedone (7 mg) in THF (1.2 ml), the amino group of the product was linked to Affigel-10 matrix (4 ml) in the presence of 2% pyridine in THF.
(§3) F11 cells were grown in culture medium, DMEM supplemented with 10% FBS and 1% pen/Strep, in 75 cm^2 vented flasks in 37° C. incubator with 5% CO2. Cells were harvested at 80% confluence and washed with PBS buffer. Lysis buffer (6 ml; 50 mM Tris, pH 7.4, 250 mM NaCl, 5 mM EDTA, 50 mM NaF, 1 mM Na3VO4, 1% Nonidet P40 (NP40), 0.1% mercaptoethanol and 2% protease inhibitor cocktails) was added to 10^9 cells. Cells were broken by forcing them through a 26-gauge needle, and S-100 supernatant was collected after 15 min centrifugation at 4° C. […] After washes with lysis buffer (2 ml) and then PBS (2 ml), the beads were analyzed on 4-20% SDS-PAGE gel. […] The protein bands (FIG. 3) were cut out and digested with trypsin (0.3 ng) in digestion buffer (30 μl; 0.2% NH4HCO3) at 30° C. overnight. The resulting peptides were purified on C18-resin and submitted for FT-ICR-MS analysis. The FT-ICR-MS data was manually edited and used to search protein databases. The results are shown in FIG. 4 and have the following scores. FK506-binding protein (FKBP52) (P30416, score: 94, expect: 9.6e-05); MS Data of the 59 kDa band: 2753.35; 1710.94; 2215.13; 2363.15; 1298.71; 1215.59; 1000.51; 1000.46; 1790.93; 1381.70; 2746.36; 1316.71; and 1171.60. Voltage dependent L-type calcium channel β1 subunit (Q8R3Z5-03-00-00, score: 133, expect: 1e-09); MS Data of the 52 kDa band: 651.38; 663.39; 779.54; 853.55; 1014.50; 1347.75; 1217.78; 1346.67; 1297.75; 1231.77; 877.52; 853.47; 919.48; 1014.56; 1041.63; 1217.74; 1231.74; 1296.84; 869.58 (major).
(§4) In another experiment, F11 cells were grown in culture medium, DMEM supplemented with 10% FBS and 1% Pen/Strep, in 75 cm^2 vented flasks in a 37° C. incubator with 5% CO2. Cells were harvested at 80% confluence and washed with PBS buffer. To 3×10^8 cells, lysis buffer (2 ml; 50 mM Tris, pH 7.4, 250 mM NaCl, 5 mM EDTA, 50 mM NaF, 1 mM Na3VO4, 1% Nonidet P40, 0.1% mercaptoethanol and 2% protease inhibitor cocktails) was added, and its S-100 supernatant was collected after 15 min centrifugation at 4° C. […] After wash with lysis buffer (2 ml) and then PBS buffer (2 ml), beads were analyzed by SDS-PAGE. […]

[1] = target: T2, β1 subunit (CACNB1) of the voltage gated L-type calcium channel (Mus musculus, UniProt Q8R3Z5); experiment: as above; type: binding, rat and mouse hybrid
T2 construct: endogenous in cells; host or cells: F-11 cells (rat DRG x mouse neuroblastoma hybrid), lysate
T2 sequence (Q8R3Z5 1-479 isoform Q8R3Z5-3): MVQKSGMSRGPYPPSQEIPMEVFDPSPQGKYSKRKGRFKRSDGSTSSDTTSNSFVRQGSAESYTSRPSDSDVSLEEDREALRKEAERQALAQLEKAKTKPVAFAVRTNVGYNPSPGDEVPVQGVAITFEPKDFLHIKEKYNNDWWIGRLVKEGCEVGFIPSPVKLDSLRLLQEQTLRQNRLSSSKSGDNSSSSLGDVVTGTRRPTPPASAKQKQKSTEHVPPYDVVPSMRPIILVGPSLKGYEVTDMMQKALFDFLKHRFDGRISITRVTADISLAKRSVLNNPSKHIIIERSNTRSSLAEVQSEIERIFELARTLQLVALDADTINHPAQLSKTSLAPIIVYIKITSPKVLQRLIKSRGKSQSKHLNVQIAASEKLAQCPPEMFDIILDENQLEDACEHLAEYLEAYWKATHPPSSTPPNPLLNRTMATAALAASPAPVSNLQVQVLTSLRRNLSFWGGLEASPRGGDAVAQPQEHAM
Method: as §1, §2, §3, §4

In the case of CO[C@H]1C[C@@H]2CC[C@@H](C)[C@@](O)(O2)C(=O)C(=O)N2CCCCC2C(=O)O[C@H]([C@H](C)C[C@@H]2CC[C@@H](O)[C@H](OC)C2)CC(=O)[C@H](C)/C=C(\C)[C@@H](O)[C@@H](OC)C(=O)[C@H](C)C[C@H](C)C2C=C[C@H](/C=C/1C)ON2c1ccccc1 (stereo partly shown) [Rapamycin analogue I, 9,27-dihydroxy-3-{2-[4-hydroxy-3-methoxycyclohexyl]-1-methylethyl}-10,21-dimethoxy-6,8,12,14,20,26-hexamethyl-37-phenyl-4,9,10,12,13,14,15,18,21,22,23,24,25,26,27,32,33,34,34a-nonadecahydro-3H-23,27-epoxy-18,15-(epoxyimino)pyrido[2,1-c][1,4]oxazacyclohentriacontine-1,5,11,28,29(6H, 31H)-pentone], the “FKBP52 in affinity bead fraction” value (FKBP52) is reported as “major targets; also recorded: detected” and the “L-type calcium channel β1 subunit (CACNB1) in affinity bead fraction” value [1] is reported as “major targets; also recorded: detected”.

In the case of CO[C@H]1C[C@@H]2CC[C@@H](C)[C@@](O)(O2)C(=O)C(=O)N2CCCCC2C(=O)O[C@H]([C@H](C)C[C@@H]2CC[C@@H](O)[C@H](OC)C2)CC(=O)[C@H](C)/C=C(\C)[C@@H](O)[C@@H](OC)C(=O)[C@H](C)C[C@H](C)C2CC[C@H](/C=C/1C)ON2c1ccccc1 (stereo partly shown) [Rapamycin analogue II, 9,27-dihydroxy-3-{2-[4-hydroxy-3-methoxycyclohexyl]-1-methylethyl}-10,21-dimethoxy-6,8,12,14,20,26-hexamethyl-37-phenyl-4,9,10,12,13,14,15,16,17,18,21,22,23,24,25,26,27,32,33,34,34a-henicosahydro-3H-23,27-epoxy-18,15-(epoxyimino)pyrido[2,1-c][1,4]oxazacyclohentriacontine-1,5,11,28,29(6H, 31H)-pentone], the “FKBP52 in affinity bead fraction” value (FKBP52) is reported as “major targets” and the “L-type calcium channel β1 subunit (CACNB1) in affinity bead fraction” value [1] is reported as “major targets”.
